This is an account of results in PubChem BioAssay (NCI).

Molecules are shown by their SMILES.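 Briefly, cells in 96-well plates were exposed to five compound concentrations for 48 h, and endpoints were estimated by linear interpolation. Here, GI50 denotes the concentration required for 50% inhibition of growth. TGI: concentration producing complete growth inhibition.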

Some test systems named below: UO-31 renal; RPMI-8226 leukemia; M14 melanoma; OVCAR-4 ovarian; CCRF-CEM leukemia; SR leukemia; OVCAR-5 ovarian; EKVX NSCLC; SF-295 CNS.
Holding throughout (assay): NCI anticancer screen, dose series, 48 h

As for `Nc1nc(Cl)cc2c1ncn2C1OC(CO)C(O)C1O` (configuration not stated), the GI50 with UO-31 renal, with RPMI-8226 leukemia, in the experiment with M14 melanoma, with OVCAR-4 ovarian, in the experiment with CCRF-CEM leukemia and with SR leukemia was over 100 µM throughout. Besides, the GI50 in the experiment with OVCAR-5 ovarian and in the experiment with EKVX NSCLC was over 100 µM each time. The TGI in the experiment on UO-31 renal, in the experiment with RPMI-8226 leukemia, with M14 melanoma, in the experiment on OVCAR-4 ovarian, in the experiment on CCRF-CEM leukemia and in the experiment on SR leukemia was over 100 µM in each case. For the same compound, the TGI in the experiment on OVCAR-5 ovarian and with EKVX NSCLC was over 100 µM in each case.

`COC(=O)c1ccc2c(c1)[n+](=O)c(C(C)=O)c(C(F)(F)F)n2[O-]`: the GI50 in the experiment with UO-31 renal was 1.71 µM; in the experiment on RPMI-8226 leukemia it was 2.23 µM; in the experiment with SF-295 CNS, 1.33 µM; in the experiment with M14 melanoma, 1.75 µM; in the experiment on CCRF-CEM leukemia, 4.62 µM; with OVCAR-5 ovarian it was 1.67 µM. In the experiment with EKVX NSCLC, the GI50 is 1.94 µM. The TGI with UO-31 renal is 3.15 µM; in the experiment with RPMI-8226 leukemia it was 6.34 µM; with SF-295 CNS, 2.78 µM; with M14 melanoma, 3.2 µM; in the experiment on CCRF-CEM leukemia it was over 100 µM; in the experiment on OVCAR-5 ovarian, 3.11 µM. This compound returned a TGI with EKVX NSCLC of 4.35 µM.

For the compound `COC(=O)C(=O)C(C(=O)C(=O)Nc1ccc(Cl)cc1Cl)c1nc2ccc(Cl)cc2[nH]c1=O` (configuration not stated), the TGI in the experiment on UO-31 renal, in the experiment on SF-295 CNS, with M14 melanoma, in the experiment on OVCAR-4 ovarian, with CCRF-CEM leukemia and in the experiment on OVCAR-5 ovarian was over 100 µM throughout. The same compound displayed a TGI with EKVX NSCLC of over 100 µM.

In the case of `COc1cc(C2CC(c3ccc(C)cc3)=NN2C(C)=O)ccc1Oc1ccnc2cc(Cl)ccc12` (configuration not stated), the GI50 is over 100 µM in the experiment on RPMI-8226 leukemia; 2.52 µM in the experiment on SF-295 CNS; over 100 µM with M14 melanoma; over 100 µM in the experiment with CCRF-CEM leukemia; over 100 µM with SR leukemia; over 100 µM in the experiment with OVCAR-5 ovarian. In the experiment on EKVX NSCLC, the GI50 is over 100 µM. Further, the TGI in the experiment on RPMI-8226 leukemia, in the experiment on SF-295 CNS, in the experiment on M14 melanoma, in the experiment with CCRF-CEM leukemia, in the experiment on SR leukemia and in the experiment with OVCAR-5 ovarian was over 100 µM each time. In the experiment with EKVX NSCLC, this compound registered a TGI of over 100 µM.

On to `COc1ccc(OC)c(-c2cc(-c3ccc(Cl)cc3)nn2-c2ccc(S(N)(=O)=O)cc2)c1`, for which the GI50 with UO-31 renal was 21.8 µM; with RPMI-8226 leukemia it was 1.72 µM; in the experiment on SF-295 CNS it was 17.2 µM; in the experiment with M14 melanoma, 7.73 µM; with OVCAR-5 ovarian, 12.8 µM; in the experiment with EKVX NSCLC, 11.9 µM. In addition, the TGI with UO-31 renal is over 100 µM; with RPMI-8226 leukemia it was 3.72 µM; with SF-295 CNS, 44.4 µM; with M14 melanoma, 19.7 µM; in the experiment with OVCAR-5 ovarian, 28.7 µM; with EKVX NSCLC, 27.5 µM.

On to `O=C(CCCCCn1c2ccccc2c2c3c(c4c5ccccc5[nH]c4c21)C(=O)N(O)C3=O)N1CCOCC1`, for which the GI50 in the experiment on UO-31 renal was 1.6 µM; in the experiment on RPMI-8226 leukemia it was 1.97 µM; with M14 melanoma it was 2.14 µM; in the experiment on OVCAR-4 ovarian it was 3.57 µM; in the experiment with CCRF-CEM leukemia it was 1.43 µM; in the experiment with SR leukemia, 1.12 µM. The GI50 was 3.49 µM in the experiment with OVCAR-5 ovarian and 4.62 µM in the experiment on EKVX NSCLC. The TGI in the experiment on UO-31 renal was 4.28 µM; in the experiment on RPMI-8226 leukemia it was 5.43 µM; in the experiment with M14 melanoma, 5.52 µM; with OVCAR-4 ovarian it was over 100 µM; with CCRF-CEM leukemia it was 4.93 µM; in the experiment on SR leukemia, 5.45 µM. Moreover, the TGI is over 100 µM in the experiment with OVCAR-5 ovarian and 43.3 µM with EKVX NSCLC.

`CCCCC#Cc1c(I)n(C2OC(CO[Si](C)(C)C(C)(C)C)C3OC(C)(C)OC32)c(=O)[nH]c1=O` (configuration not stated): the GI50 with UO-31 renal was 1.53 µM; with RPMI-8226 leukemia, 2.17 µM; in the experiment on SF-295 CNS, 22 µM; in the experiment with M14 melanoma, 17.6 µM; in the experiment with OVCAR-4 ovarian, 3.84 µM; in the experiment with CCRF-CEM leukemia, 2.64 µM. Moreover, the GI50 with OVCAR-5 ovarian is 14.4 µM; in the experiment with EKVX NSCLC it was 15.3 µM. Moreover, the TGI amounted to 11.2 µM in the experiment with UO-31 renal; 5.28 µM in the experiment on RPMI-8226 leukemia; 51.5 µM in the experiment on SF-295 CNS; 34.8 µM in the experiment on M14 melanoma; 16.1 µM with OVCAR-4 ovarian; 8.04 µM with CCRF-CEM leukemia. Also, the TGI came to 27.9 µM with OVCAR-5 ovarian and 28.7 µM in the experiment on EKVX NSCLC.

`COC(=O)C1=C(O)C(C(=O)OC)[C@@]2(O)[C@@H](C(=O)OC)C(c3ccc(OC(=O)C(Cc4ccccc4)NC(C)=O)cc3)C[C@@H]1[C@@H]2C(=O)OC` (some centres not stated): the GI50 is 35.7 µM in the experiment on UO-31 renal; 20.6 µM in the experiment on RPMI-8226 leukemia; 32.8 µM in the experiment with SF-295 CNS; 20.7 µM with M14 melanoma; 32.9 µM in the experiment with CCRF-CEM leukemia; 3.35 µM in the experiment on SR leukemia. The GI50 was 35 µM with OVCAR-5 ovarian and 95.7 µM in the experiment on EKVX NSCLC. The TGI with UO-31 renal was over 100 µM; in the experiment with RPMI-8226 leukemia, 71.4 µM; in the experiment with SF-295 CNS, 69.3 µM; with M14 melanoma it was 47.2 µM; in the experiment with CCRF-CEM leukemia, over 100 µM; in the experiment with SR leukemia, over 100 µM. For the same compound, the TGI is 97.3 µM in the experiment with OVCAR-5 ovarian and over 100 µM in the experiment with EKVX NSCLC.

In the case of `O=C1C=Cc2cc3ccccc3c3cccc1c23`, the GI50 is 7.31 µM in the experiment on UO-31 renal; 2.62 µM in the experiment on RPMI-8226 leukemia; 7.65 µM with SF-295 CNS; 15.7 µM in the experiment on M14 melanoma; 14.5 µM in the experiment on OVCAR-4 ovarian; 4.35 µM with CCRF-CEM leukemia. Further, the GI50 with OVCAR-5 ovarian is 3.44 µM; in the experiment with EKVX NSCLC, 2.55 µM. The TGI with UO-31 renal is over 100 µM; in the experiment on RPMI-8226 leukemia it was 8.5 µM; with SF-295 CNS it was 35.8 µM; in the experiment on M14 melanoma, over 100 µM; in the experiment on OVCAR-4 ovarian it was over 100 µM; in the experiment with CCRF-CEM leukemia it was 18.3 µM. Moreover, the TGI in the experiment with OVCAR-5 ovarian worked out at 27.5 µM; with EKVX NSCLC, 8.92 µM.
